Experimental data from patent publication US20170002421A1, “METHODS AND ASSAYS FOR DETERMINING REDUCED BRCA1 PATHWAY FUNCTION IN A CANCER CELL” (THE GENERAL HOSPITAL CORPORATION, priority 2013, published 2017).

Legend:
[1] = clinical use, literature refs 34-38; cited from earlier work
[2] = system: breast cancer cell line panel; experiment: Pharmacologic inhibition assay (Crystal Violet, mean percent viability); assay type: cell-based, human
Procedure: All cell lines were obtained and maintained as previously described^15. Independent pharmacologic inhibition assays were conducted in triplicate for each cell line. Cells were seeded at 20,000 per well in a 24-well plate. After 24 hours, cells were treated in triplicate with indicated concentrations of: DMSO, temozolomide (SIGMA ALDRICH™, T2577), or AZD-2281 (SELLECK CHEMICALS™, S1060). After five days of incubation, cells were fixed in 4% formaldehyde and stained with 1% Crystal Violet (SIGMA ALDRICH™, C0775) for ten minutes at room temperature. Cells were then washed to remove unincorporated dye and plates were inverted to dry overnight. Incorporated dye was extracted with 10% acetic acid and OD595 measurements were obtained within a linear range. Treated cells were normalized to the vehicle-treated control to obtain mean percent viability.

Structure (SMILES) | crossing the blood/brain barrier [1] | inhibition (viability) in combination ([2]; 40 nM olaparib combined with 100 uM temozolomide, breast cancer cell line panel (FIG. 4A, lower panel)) | reduction in viability, single administration ([2]; either drug alone, seven of the tested cell lines with Garnett et al. expression data (FIG. 4B, top and middle panel)) | inhibitory effects (viability) ([2]; olaparib alone, 40 nM, five days incubation, breast cancer cell line panel (FIG. 4A, middle panel))
O=C(c1cc(Cc2n[nH]c(=O)c3ccccc23)ccc1F)N1CCN(C(=O)C2CC2)CC1 [olaparib] | evidence of crossing the blood/brain barrier | exerts inhibition | did not demonstrate a significant reduction in viability | does not demonstrate inhibitory effects alone
Cn1nnc2c(C(N)=O)ncn2c1=O [temozolomide] | can cross the blood/brain barrier |  |  | 
